Results on four cell lines are retold here after the supplement of paper PMC10307832.

Assay in all cases: relative viability (nuclei count vs DMSO), 5 days (fraction); higher = more cells survive
Compound in assay [1]: CC1=C(CC(=O)O)c2cc(F)ccc2/C1=C\c1ccc([S+](C)[O-])cc1 [Sulindac] + CC(=O)Nc1cccc(-n2c(=O)n(C3CC3)c(=O)c3c(Nc4ccc(I)cc4F)n(C)c(=O)c(C)c32)c1 [Trametinib] (partner 0.02 µM)
Put shortly:
(§1)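 Lung cancer cell lines in 1536-well plates got either a single drug or a fixed anchor-drug dose together with five library-drug doses (not always all listed) in √10 steps, by pin tool, on the day after seeding. Nuclei were counted after 5 days, and relative viability is the treated-to-vehicle ratio of nuclei counts. Values are medians of duplicate plates.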

Compound in assay [2]: O=c1[nH]cc(F)c(=O)[nH]1 [5-Fluorouracil] + NC(=O)Nc1cc(-c2cccc(F)c2)sc1C(=O)N[C@H]1CCCNC1 [AZD7762] (partner 0.2 µM)
Put shortly: as §1

Compound in assay [3]: CN[C@@H]1C[C@H]2O[C@@](C)([C@@H]1OC)n1c3ccccc3c3c4c(c5c6ccccc6n2c5c31)C(=O)NC4 [Staurosporine] + CC(=O)Nc1cccc(-n2c(=O)n(C3CC3)c(=O)c3c(Nc4ccc(I)cc4F)n(C)c(=O)c(C)c32)c1 [Trametinib] (partner 0.02 µM)
Put shortly: as §1

Compound in assay [4]: O=c1[nH]cc(F)c(=O)[nH]1 [5-Fluorouracil] + O=C(c1cc(Cc2n[nH]c(=O)c3ccccc23)ccc1F)N1CCN(C(=O)C2CC2)CC1 [Olaparib] (partner 8 µM)
An outline of the steps: as §1

As for NCI-H838, the relative viability in assay [1] (first compound 0.08 µM) came to 0.608; in assay [1] (first compound 0.253 µM) it was 0.559; in assay [1] (first compound 0.8 µM) it was 0.456; in assay [1] (first compound 2.53 µM), 0.527; in assay [1] (first compound 8 µM), 0.584; in assay [2] (first compound 0.02 µM), 0.915. Besides, the relative viability amounted to 0.684 in assay [2] (first compound 0.2 µM); 0.654 in assay [2] (first compound 0.6325 µM); 0.642 in assay [2] (first compound 2 µM); 0.174 in assay [3] (first compound 0.005 µM); 0.145 in assay [3] (first compound 0.01581 µM); 0.208 in assay [3] (first compound 0.05 µM). Also, the relative viability in assay [3] (first compound 0.1581 µM) was 0.0937; in assay [3] (first compound 0.5 µM), 0.0589; in assay [4] (first compound 0.02 µM) it was 0.801; in assay [4] (first compound 0.2 µM), 0.691; in assay [4] (first compound 0.6325 µM), 0.45; in assay [4] (first compound 2 µM) it was 0.296.

As to NCI-H1355, the relative viability was found to be 0.389 in assay [1] (first compound 0.08 µM); 0.462 in assay [1] (first compound 0.253 µM); 0.312 in assay [1] (first compound 0.8 µM); 0.43 in assay [1] (first compound 2.53 µM); 0.42 in assay [1] (first compound 8 µM); 0.673 in assay [2] (first compound 0.02 µM). Also, the relative viability in assay [2] (first compound 0.2 µM) amounted to 0.37; in assay [2] (first compound 0.6325 µM), 0.231; in assay [2] (first compound 2 µM), 0.198; in assay [3] (first compound 0.005 µM) it was 0.279; in assay [3] (first compound 0.01581 µM), 0.255; in assay [3] (first compound 0.05 µM), 0.232. For the same cell line, the relative viability in assay [3] (first compound 0.1581 µM) came to 0.22; in assay [3] (first compound 0.5 µM), 0.147; in assay [4] (first compound 0.02 µM), 0.716; in assay [4] (first compound 0.2 µM) it was 0.485; in assay [4] (first compound 0.6325 µM), 0.253; in assay [4] (first compound 2 µM), 0.225.

Turning to NCI-H1395, the relative viability in assay [1] (first compound 0.08 µM) came to 0.966; in assay [1] (first compound 0.253 µM), 0.999; in assay [1] (first compound 0.8 µM), 0.939; in assay [1] (first compound 2.53 µM) it was 0.949; in assay [1] (first compound 8 µM) it was 1.17; in assay [2] (first compound 0.02 µM) it was 0.395. Moreover, the relative viability in assay [2] (first compound 0.2 µM) is 0.405; in assay [2] (first compound 0.6325 µM) it was 0.459; in assay [2] (first compound 2 µM), 0.385; in assay [3] (first compound 0.005 µM), 0.98; in assay [3] (first compound 0.01581 µM), 0.77; in assay [3] (first compound 0.05 µM), 0.476. Besides, the relative viability worked out at 0.305 in assay [3] (first compound 0.1581 µM); 0.261 in assay [3] (first compound 0.5 µM); 0.481 in assay [4] (first compound 0.02 µM); 0.445 in assay [4] (first compound 0.2 µM); 0.557 in assay [4] (first compound 0.6325 µM); 0.479 in assay [4] (first compound 2 µM).

Regarding NCI-H1437, the relative viability was 0.644 in assay [1] (first compound 0.08 µM); 0.568 in assay [1] (first compound 0.253 µM); 0.461 in assay [1] (first compound 0.8 µM); 0.515 in assay [1] (first compound 2.53 µM); 0.525 in assay [1] (first compound 8 µM); 0.34 in assay [2] (first compound 0.02 µM). The relative viability in assay [2] (first compound 0.2 µM) came out at 0.199; in assay [2] (first compound 0.6325 µM), 0.17; in assay [2] (first compound 2 µM), 0.116; in assay [3] (first compound 0.005 µM), 0.342; in assay [3] (first compound 0.01581 µM), 0.244; in assay [3] (first compound 0.05 µM), 0.26. Moreover, the relative viability in assay [3] (first compound 0.1581 µM) was found to be 0.21; in assay [3] (first compound 0.5 µM), 0.124; in assay [4] (first compound 0.02 µM), 0.517; in assay [4] (first compound 0.2 µM), 0.285; in assay [4] (first compound 0.6325 µM) it was 0.222; in assay [4] (first compound 2 µM), 0.217.
